Earlier results on one molecule are cited in patent US20260207657A1, “ANTISEPTIC COMPOSITIONS AND METHODS” (Solventum Intellectual Properties Company, priority 2022, published 2026).

The structures appear in SMILES notation.

For the series the following is noted: 25° C.

With `II` [molecular iodine], the Solubility in water was 0.03 wt-%.
